Reference: the CheMixHub ionic liquid set

Test: xn = mol fraction of the nth substance listed

CCOS(=O)(=O)[O-].CC[n+]1ccn(C)c1 + O
Conditions | electrical conductivity [S/m] | viscosity [mPa·s]
283.15 K, 101 kPa, x2 = 0.1966 | – | 136.9
283.15 K, 101 kPa, x2 = 0.6124 | – | 32.65
288.15 K, 100 kPa, x1 = 0.0005131 | – | 1.163
288.15 K, 100 kPa, x1 = 0.0008362 | – | 1.177
288.15 K, 100 kPa, x1 = 0.001227 | – | 1.193
288.15 K, 100 kPa, x1 = 0.002025 | – | 1.227
288.15 K, 100 kPa, x1 = 0.002516 | – | 1.25
288.15 K, 100 kPa, x1 = 0.003482 | – | 1.292
288.15 K, 100 kPa, x1 = 0.00456 | – | 1.342
288.15 K, 100 kPa, x1 = 0.006613 | – | 1.426
288.15 K, 100 kPa, x1 = 0.008007 | – | 1.491
288.15 K, 100 kPa, x1 = 0.009969 | – | 1.577
288.15 K, 100 kPa, x1 = 0.01406 | – | 1.777
288.15 K, 100 kPa, x1 = 0.0162 | – | 1.889
293.15 K, 100 kPa, x1 = 0.0005131 | – | 1.012
293.15 K, 100 kPa, x1 = 0.0008362 | – | 1.024
293.15 K, 100 kPa, x1 = 0.002516 | – | 1.092
293.15 K, 100 kPa, x1 = 0.003482 | – | 1.129
293.15 K, 100 kPa, x1 = 0.00456 | – | 1.171
293.15 K, 100 kPa, x1 = 0.006613 | – | 1.247
293.15 K, 100 kPa, x1 = 0.008007 | – | 1.295
293.15 K, 100 kPa, x1 = 0.009969 | – | 1.365
293.15 K, 100 kPa, x1 = 0.01406 | – | 1.508
293.15 K, 100 kPa, x1 = 0.0162 | – | 1.597
293.15 K, 101 kPa, x2 = 0.0023 | – | 133.9
293.15 K, 101 kPa, x2 = 0.1225 | – | 99.1
298.15 K, 100 kPa, x1 = 0.0005131 | – | 0.9026
298.15 K, 100 kPa, x1 = 0.0008362 | – | 0.9136
298.15 K, 100 kPa, x1 = 0.001227 | – | 0.929
298.15 K, 100 kPa, x1 = 0.002025 | – | 0.9545
298.15 K, 100 kPa, x1 = 0.002516 | – | 0.9707
298.15 K, 100 kPa, x1 = 0.003482 | – | 1.004
298.15 K, 100 kPa, x1 = 0.00456 | – | 1.039
298.15 K, 100 kPa, x1 = 0.006613 | – | 1.1
298.15 K, 100 kPa, x1 = 0.008007 | – | 1.141
298.15 K, 100 kPa, x1 = 0.009969 | – | 1.201
298.15 K, 100 kPa, x1 = 0.01406 | – | 1.322
298.15 K, 100 kPa, x1 = 0.0162 | – | 1.392
298.15 K, 101 kPa, x1 = 0.003 | 0.74 | –
298.15 K, 101 kPa, x1 = 0.047 | 4 | –
298.15 K, 101 kPa, x2 = 0.1608 | – | 70
298.15 K, 101.3 kPa, x1 = 0.01871 | 3.26 | –
298.15 K, 101.3 kPa, x2 = 0 | 0.398 | –
298.15 K, 101.3 kPa, x2 = 0.8489 | 3.85 | –
298.15 K, 101.3 kPa, x2 = 0.9291 | 4.45 | –
298.15 K, 101.3 kPa, x2 = 0.9684 | 3.95 | –
298.15 K, 101.3 kPa, x2 = 0.9752 | 3.66 | –
303.15 K, 100 kPa, x1 = 0.0005131 | – | 0.8072
303.15 K, 100 kPa, x1 = 0.0008362 | – | 0.8175
303.15 K, 100 kPa, x1 = 0.001227 | – | 0.8288
303.15 K, 100 kPa, x1 = 0.002025 | – | 0.8498
303.15 K, 100 kPa, x1 = 0.002516 | – | 0.8628
303.15 K, 100 kPa, x1 = 0.003482 | – | 0.8878
303.15 K, 100 kPa, x1 = 0.00456 | – | 0.9163
303.15 K, 100 kPa, x1 = 0.006613 | – | 0.9752
303.15 K, 100 kPa, x1 = 0.008007 | – | 1.01
303.15 K, 100 kPa, x1 = 0.01406 | – | 1.156
308.15 K, 100 kPa, x1 = 0.0005131 | – | 0.7285
308.15 K, 100 kPa, x1 = 0.0008362 | – | 0.7368
308.15 K, 100 kPa, x1 = 0.001227 | – | 0.7453
308.15 K, 100 kPa, x1 = 0.002025 | – | 0.7648
308.15 K, 100 kPa, x1 = 0.002516 | – | 0.774
308.15 K, 100 kPa, x1 = 0.003482 | – | 0.7947
308.15 K, 100 kPa, x1 = 0.00456 | – | 0.8202
308.15 K, 100 kPa, x1 = 0.006613 | – | 0.8682
308.15 K, 100 kPa, x1 = 0.008007 | – | 0.8953
308.15 K, 100 kPa, x1 = 0.009969 | – | 0.9332
308.15 K, 100 kPa, x1 = 0.01406 | – | 1.02
308.15 K, 100 kPa, x1 = 0.0162 | – | 1.066
313.15 K, 100 kPa, x1 = 0.0005131 | – | 0.6616
313.15 K, 100 kPa, x1 = 0.0008362 | – | 0.669
313.15 K, 100 kPa, x1 = 0.001227 | – | 0.6761
313.15 K, 100 kPa, x1 = 0.002025 | – | 0.6922
313.15 K, 100 kPa, x1 = 0.002516 | – | 0.7008
313.15 K, 100 kPa, x1 = 0.003482 | – | 0.7189
313.15 K, 100 kPa, x1 = 0.00456 | – | 0.7368
313.15 K, 100 kPa, x1 = 0.006613 | – | 0.7779
313.15 K, 100 kPa, x1 = 0.008007 | – | 0.8031
313.15 K, 100 kPa, x1 = 0.009969 | – | 0.8366
313.15 K, 100 kPa, x1 = 0.01406 | – | 0.9075
313.15 K, 100 kPa, x1 = 0.0162 | – | 0.9429
313.15 K, 101 kPa, x1 = 0.003 | 0.97 | –
313.15 K, 101 kPa, x1 = 0.008 | 2.5 | –
313.15 K, 101 kPa, x1 = 0.013 | 3.4 | –
313.15 K, 101 kPa, x1 = 0.019 | 3.9 | –
313.15 K, 101 kPa, x1 = 0.151 | 4.7 | –
313.15 K, 101 kPa, x1 = 0.642 | 1.4 | –
318.15 K, 100 kPa, x1 = 0.0005131 | – | 0.6014
318.15 K, 100 kPa, x1 = 0.0008362 | – | 0.6088
318.15 K, 100 kPa, x1 = 0.001227 | – | 0.6154
318.15 K, 100 kPa, x1 = 0.002025 | – | 0.6285
318.15 K, 100 kPa, x1 = 0.002516 | – | 0.6341
318.15 K, 100 kPa, x1 = 0.003482 | – | 0.6498
318.15 K, 100 kPa, x1 = 0.00456 | – | 0.6693
318.15 K, 100 kPa, x1 = 0.006613 | – | 0.6989
318.15 K, 100 kPa, x1 = 0.008007 | – | 0.7189
318.15 K, 100 kPa, x1 = 0.009969 | – | 0.7489
318.15 K, 100 kPa, x1 = 0.01406 | – | 0.8092
318.15 K, 100 kPa, x1 = 0.0162 | – | 0.8249
323.15 K, 100 kPa, x1 = 0.0005131 | – | 0.5543
323.15 K, 100 kPa, x1 = 0.0008362 | – | 0.5575
323.15 K, 100 kPa, x1 = 0.001227 | – | 0.5629
323.15 K, 100 kPa, x1 = 0.002025 | – | 0.5726
323.15 K, 100 kPa, x1 = 0.002516 | – | 0.5798
323.15 K, 100 kPa, x1 = 0.003482 | – | 0.592
323.15 K, 100 kPa, x1 = 0.00456 | – | 0.6071
323.15 K, 100 kPa, x1 = 0.006613 | – | 0.6309
323.15 K, 100 kPa, x1 = 0.008007 | – | 0.6496
323.15 K, 100 kPa, x1 = 0.009969 | – | 0.672
323.15 K, 100 kPa, x1 = 0.01406 | – | 0.7192
323.15 K, 100 kPa, x1 = 0.0162 | – | 0.7349
323.15 K, 101 kPa, x2 = 0.427 | – | 14.57
328.15 K, 100 kPa, x1 = 0.0005131 | – | 0.5096
328.15 K, 100 kPa, x1 = 0.0008362 | – | 0.5125
328.15 K, 100 kPa, x1 = 0.001227 | – | 0.5161
328.15 K, 100 kPa, x1 = 0.002025 | – | 0.5251
328.15 K, 100 kPa, x1 = 0.002516 | – | 0.5307
328.15 K, 100 kPa, x1 = 0.003482 | – | 0.5404
328.15 K, 100 kPa, x1 = 0.00456 | – | 0.5521
328.15 K, 100 kPa, x1 = 0.006613 | – | 0.5713
343.15 K, 101 kPa, x2 = 0.0023 | – | 19.63
343.15 K, 101 kPa, x2 = 0.1966 | – | 14.47
343.15 K, 101 kPa, x2 = 0.427 | – | 8.918
